Columns and labels:
Settings in all cases: 72 h
MOLM-13 = assay: cell viability (% survival relative to DMSO control, bortezomib = 0%); higher = less cytotoxic
How it was run: (§1)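 Fifteen myeloid leukaemia cell lines (10 AML, 5 CML) were seeded at a density titrated to the linear growth range into 384-well plates pre-printed with compounds at 1, 10, 100, 1000 or 10000 nM in duplicate. Plates were incubated for 72 h at 37 °C with 5% CO2. Viability was then read by CellTiter-Glo luminescence. Each value is percent survival averaged over the duplicates, with vehicle set to 100% and a 10 µM positive control to 0%.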

KCL-22 = assay: as above
How it was run: as §1

KG-1 = assay: as above
How it was run: as §1

HL-60 = assay: area under dose-response curve (viability, 1 nM-10 uM) (fraction (0-1)); higher = more sensitive
How it was run: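 Four-parameter log-logistic fits in drc and PharmacoGx supplied area under the curve where it is given. Underlying viability came from CellTiter-Glo, normalised to DMSO and proteasome-inhibitor wells, with the proteasome inhibitor at 10 μM. HL-60 cells in RPMI 1640 plus 10% FBS had been rescreened against the full library at five tenfold concentrations of 1–10,000 nM, in duplicate on 384-well plates, with DMSO or 100 nM of one of three metabolic inhibitors, for 72 h at 37 °C, 5% CO2.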

[1] = system: myeloid leukemia patient primary cells Pat.5; assay: cell viability (% survival relative to DMSO control); higher = less cytotoxic
How it was run: (§2)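 Seventy compounds were pre-printed on 384-well plates at five tenfold concentrations between 1 and 10,000 nM, in duplicate. Thawed mononuclear cells purified by Ficoll from AML or CML patients were added at 10,000 cells/well in RPMI 1640 with 10% FBS for 72 h. Viability by CellTiter-Glo was normalised to DMSO and 10 μM proteasome-inhibitor wells. Where stated, area under the curve was taken from log-logistic fits made with the drc and PharmacoGx R packages, each fit having four parameters.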

[2] = system: myeloid leukemia patient primary cells Pat.3; assay: as above
How it was run: as §2

[3] = system: myeloid leukemia patient primary cells Pat.6; assay: as above
How it was run: as §2

[4] = system: myeloid leukemia patient primary cells Pat.15; assay: as above
How it was run: as §2

[5] = system: myeloid leukemia patient primary cells Pat.12; assay: as above
How it was run: as §2

[6] = system: myeloid leukemia patient primary cells Pat.7; assay: as above
How it was run: as §2

[7] = system: myeloid leukemia patient primary cells Pat.10; assay: as above
How it was run: as §2

[8] = system: myeloid leukemia patient primary cells Pat.4; assay: as above
How it was run: as §2

[9] = system: myeloid leukemia patient primary cells Pat.2; assay: as above
How it was run: as §2

[10] = system: myeloid leukemia patient primary cells Pat.11; assay: as above
How it was run: as §2

[11] = system: myeloid leukemia patient primary cells Pat.8; assay: as above
How it was run: as §2

[12] = system: myeloid leukemia patient primary cells Pat.13; assay: as above
How it was run: as §2

[13] = system: myeloid leukemia patient primary cells Pat.14; assay: as above
How it was run: as §2

[14] = system: myeloid leukemia patient primary cells Pat.1; assay: as above
How it was run: as §2

O=C(O)Cn1nnc(-c2cc(N3CCC(Oc4cc(F)ccc4Br)CC3)no2)n1 [MK-8245]
Settings	area under dose-response curve, co-treatment: AZD3965 100 nM	area under dose-response curve, co-treatment: DMSO vehicle	area under dose-response curve, co-treatment: GSK2194069 100 nM	area under dose-response curve, co-treatment: pictilisib 100 nM	cell viability, 1 nM [%]	cell viability, 10 nM [%]	cell viability, 100 nM [%]	cell viability, 1000 nM [%]	cell viability, 10000 nM [%]
HL-60	< 0.0301	< 0.0301	< 0.0301	< 0.0301	–	–	–	–	–
KCL-22	–	–	–	–	105	118	95.5	97.7	60.1
KG-1	–	–	–	–	105	117	108	102	112
MOLM-13	–	–	–	–	104	131	86.1	48.2	35.8
[1]	–	–	–	–	> 100	93.9	90.6	94.3	70
[2]	–	–	–	–	> 100	98.2	78.1	62	57
[3]	–	–	–	–	97.8	97.2	97.3	> 100	97
[4]	–	–	–	–	95.9	91.5	93.5	> 100	95.2
[5]	–	–	–	–	> 100	88.3	> 100	95.7	93.6
[6]	–	–	–	–	97.4	93.6	82.9	> 100	56.7
[7]	–	–	–	–	56.6	80.7	> 100	54.5	4.72
[8]	–	–	–	–	97.3	96.4	81	97.3	> 100
[9]	–	–	–	–	> 100	97	> 100	> 100	96.3
[10]	–	–	–	–	> 100	96.4	> 100	> 100	97
[11]	–	–	–	–	> 100	89.4	94.8	91.6	> 100
[12]	–	–	–	–	87.2	88.5	99.8	95.8	95.5
[13]	–	–	–	–	95.5	90.3	99.3	90.2	89.8
[14]	–	–	–	–	96.4	77.4	98	97.5	98.5

C=C(C=NNC(=N)N)NNC(=N)N [Mitoguazone]
Settings	area under dose-response curve, co-treatment: AZD3965 100 nM	area under dose-response curve, co-treatment: DMSO vehicle	area under dose-response curve, co-treatment: GSK2194069 100 nM	area under dose-response curve, co-treatment: pictilisib 100 nM	cell viability, 1 nM [%]	cell viability, 10 nM [%]	cell viability, 100 nM [%]	cell viability, 1000 nM [%]	cell viability, 10000 nM [%]
HL-60	0.0689	< 0.0301	0.0353	0.0324	–	–	–	–	–
KCL-22	–	–	–	–	94.4	100	103	86.9	42
KG-1	–	–	–	–	94.9	97.2	103	84.7	34.8
MOLM-13	–	–	–	–	93.7	88.3	133	52.2	13.8
[1]	–	–	–	–	> 100	0.912	0.265	1.33	78.9
[2]	–	–	–	–	97.3	82.2	51.4	4.18	53
[3]	–	–	–	–	> 100	82	44.5	1.04	50.8
[4]	–	–	–	–	89.7	82.8	91.4	69.4	19.6
[5]	–	–	–	–	> 100	90	99.3	96.9	99.4
[6]	–	–	–	–	65.3	85.7	< 0	< 0	54.5
[7]	–	–	–	–	78.7	59.4	13.6	28.1	89.2
[8]	–	–	–	–	92.5	82.3	48.1	92.3	44.2
[9]	–	–	–	–	96.2	79.2	49.2	50	67.7
[10]	–	–	–	–	98.8	92.1	> 100	98.6	84.1
[11]	–	–	–	–	94.1	69	50	99.8	94.2
[12]	–	–	–	–	88.3	78.5	91.2	50.8	> 100
[13]	–	–	–	–	91.4	54.7	4.62	2.41	80.8
[14]	–	–	–	–	86.1	72.5	93.5	94.2	69

COc1cc(/C=C/C(=O)N2CCC=CC2=O)cc(OC)c1OC [Piperlongumine]
Settings	area under dose-response curve, co-treatment: AZD3965 100 nM	area under dose-response curve, co-treatment: DMSO vehicle	area under dose-response curve, co-treatment: GSK2194069 100 nM	area under dose-response curve, co-treatment: pictilisib 100 nM	cell viability, 1 nM [%]	cell viability, 10 nM [%]	cell viability, 100 nM [%]	cell viability, 1000 nM [%]	cell viability, 10000 nM [%]
HL-60	0.131	0.134	0.156	0.153	–	–	–	–	–
KCL-22	–	–	–	–	92.3	109	90.3	93.5	1.29
KG-1	–	–	–	–	98.4	102	93.1	98.3	4.3
MOLM-13	–	–	–	–	98.6	87.6	99.5	75.7	0.668
[1]	–	–	–	–	6.78	82.5	13.4	11.1	10.1
[2]	–	–	–	–	60	> 100	84.6	51.3	3.72
[3]	–	–	–	–	83.2	96.6	86.2	> 100	2.54
[4]	–	–	–	–	84	96.2	98.5	70.3	1.42
[5]	–	–	–	–	99.6	88.9	95.2	80.4	3.26
[6]	–	–	–	–	52	> 100	69.9	78.6	57
[7]	–	–	–	–	79.5	77.8	71.8	45.5	> 100
[8]	–	–	–	–	82.6	88.8	68.2	53.9	< 0
[9]	–	–	–	–	90.5	98.5	93.3	93.6	4.56
[10]	–	–	–	–	94.1	98.5	> 100	> 100	5.04
[11]	–	–	–	–	79.2	89.3	79.2	77.1	0.503
[12]	–	–	–	–	81.8	98.3	76	69	21.2
[13]	–	–	–	–	60.5	98.5	68.7	44.8	6.11
[14]	–	–	–	–	93.4	84.5	70.3	75.6	3.43

C=C(C)[C@H]1Cc2c(ccc3c2O[C@@H]2COc4cc(OC)c(OC)cc4[C@@H]2C3=O)O1 [Rotenone]
Settings	area under dose-response curve, co-treatment: AZD3965 100 nM	area under dose-response curve, co-treatment: DMSO vehicle	area under dose-response curve, co-treatment: GSK2194069 100 nM	area under dose-response curve, co-treatment: pictilisib 100 nM	cell viability, 1 nM [%]	cell viability, 10 nM [%]	cell viability, 100 nM [%]	cell viability, 1000 nM [%]	cell viability, 10000 nM [%]
HL-60	0.137	0.319	0.289	0.256	–	–	–	–	–
KCL-22	–	–	–	–	97.8	103	81.7	0.654	1.21
KG-1	–	–	–	–	93.6	83.7	43.7	11.5	11.6
MOLM-13	–	–	–	–	103	77.8	67.2	2.3	0.733
[1]	–	–	–	–	5.46	0.265	0.912	0.265	1.18
[2]	–	–	–	–	48.6	57.4	35.7	25.3	18
[3]	–	–	–	–	44.2	75.4	47.2	37.3	23.7
[4]	–	–	–	–	44.9	66	43.9	24.3	37.6
[5]	–	–	–	–	94.8	89.2	66.1	64.9	49.5
[6]	–	–	–	–	5.63	79.4	54.6	36.3	1.21
[7]	–	–	–	–	38.7	75.5	47.7	30	20.9
[8]	–	–	–	–	79.9	89.3	88.5	62.3	11.7
[9]	–	–	–	–	62.7	86.5	68.7	61.5	57.5
[10]	–	–	–	–	88.5	93.3	94.2	85.5	73.9
[11]	–	–	–	–	70.8	79.3	55.6	36.8	3.96
[12]	–	–	–	–	62.5	80.5	57.6	17.2	11.9
[13]	–	–	–	–	30.2	71	50	30.8	10.7
[14]	–	–	–	–	75.9	81.3	72.8	68.4	34.8

Oc1ccc(Nc2nc(-c3ccc(Cl)cc3)cs2)cc1 [SKI II]
Settings	area under dose-response curve, co-treatment: AZD3965 100 nM	area under dose-response curve, co-treatment: DMSO vehicle	area under dose-response curve, co-treatment: GSK2194069 100 nM	area under dose-response curve, co-treatment: pictilisib 100 nM	cell viability, 1 nM [%]	cell viability, 10 nM [%]	cell viability, 100 nM [%]	cell viability, 1000 nM [%]	cell viability, 10000 nM [%]
HL-60	0.0929	0.0805	0.0628	0.151	–	–	–	–	–
KCL-22	–	–	–	–	94.5	107	109	92.1	25.7
KG-1	–	–	–	–	98	103	97.2	81.7	32.7
MOLM-13	–	–	–	–	80	104	110	106	44.3
[1]	–	–	–	–	34.3	41.7	45.5	25	17
[2]	–	–	–	–	56.2	92.1	89.3	44.4	0.909
[3]	–	–	–	–	75.2	98.7	95.4	93.1	16.2
[4]	–	–	–	–	69.6	93.3	85.9	87.3	33.6
[5]	–	–	–	–	89.9	92.9	95.8	> 100	53.9
[6]	–	–	–	–	79.7	> 100	62.7	11.5	< 0
[7]	–	–	–	–	49.5	47.7	> 100	9.05	81.9
[8]	–	–	–	–	65.6	94.5	54.5	89.1	25.3
[9]	–	–	–	–	95.5	95.9	95.1	94.2	53.1
[10]	–	–	–	–	89.5	97.2	98.4	92	79.3
[11]	–	–	–	–	82.4	80.7	84.5	80	42.6
[12]	–	–	–	–	77.6	94.2	89.3	92.9	32.9
[13]	–	–	–	–	58.3	97.8	69.4	29.1	6.09
[14]	–	–	–	–	64.1	> 100	> 100	88.9	32.6

Reference: the supplement of paper PMC8671470
